Test system: 885724-159-R-J1-PDC KRAS PDC multicell spheroid viability
Experiment: Anticancer human tumor 885724-159-R-J1-PDC patient-derived pancreatic adenocarcinoma cell line growth inhibition [KRAS2]
Settings: for viability, T/C: stronger effect = lower value
Excerpt: Multicellular complex tumor spheroid response to RAS pathway inhibitors in combination with a targeted agents in patient-derived cell lines with oncogenic KRAS variants from multiple cancer types
A high-throughput screen of multi-cell type tumor spheroids was designed to identify active combinations of targeted small molecules and KRAS pathway inhibitors. Complex spheroids include a stromal component modeled by human endothelial cells (HUVEC) and fibroblasts modeled by human mesenchymal stem cells (MSCs). The concentration ranges selected for each drug and investigational agent were based upon clinically achievable concentrations if the clinical Cmax of the agent was known.
Compounds. The drugs and investigational agents: BI-3406 (NSC825286), BAY-293 (NSC824723), batoprotafib (TNO155; NSC825523), sotorasib (AMG 510; NSC818433), MRTX1257 (NSC819558), elimusertib (BAY 1895344; NSC800525), molibresib (GSK525762; NSC774829), temuterkib (LY3214996; NSC803410), venetoclax (NSC766270), alisertib (NSC759677), olaparib (NSC753686), talazoparib (NSC767125), erdafitinib (NSC781556), ipatasertib (NSC767898), cabozantinib (NSC761068), nintedanib (NSC756659), abemaciclib (NSC768073), docetaxel (NSC628503), trametinib (NSC758246), and sapanisertib (NSC764658) were obtained from the National Cancer Institute (NCI) Developmental Therapeutics Program Chemical Repository. The FDA-approved anticancer drug set is available from the Developmental Therapeutics Program. […] The stock solutions were prepared in dimethyl sulfoxide (DMSO, Sigma-Aldrich, St. Louis, MO, cat. D2650) at 800-fold the tested concentration and stored at -70 degrees C prior to their use. All drugs and investigational agents were tested over a range starting from a high concentration at or near the clinical Cmax and decreasing in half-log increments. If the clinical Cmax for an agent had not been determined, the highest concentration tested was 10 microM.
Cell Culture. All cells were maintained in an incubator at 37 degrees C and 5% CO2 with 95% humidity. The PDC lines were cultured according to standard operating procedures established by the NCI PDMR (https://pdmr.cancer.gov/sops/default.htm). Briefly, all PDCs were thawed and cultured in Matrigel-coated flasks prepared with a working solution of 1X Ham's F-12 nutrient mix, without supplementation (Invitrogen, Waltham, MA, cat. 11765054), 100 U/mL penicillin-streptomycin (Invitrogen, cat. 15140122), and 2.5% Matrigel (Corning Inc., Corning, NY, cat. 354248) for the first three passages. All PDCs were cultured in complete DMEM/F-12 media containing advanced DMEM/F-12 (Invitrogen, cat. 12634028), 4.9% defined fetal bovine serum, heat inactivated (HyClone Laboratories Inc., Logan, UT, cat. SH30070.03HI), 389 ng/mL hydrocortisone (Sigma-Aldrich, cat. H4001), 9.7 ng/mL human EGF recombinant protein (Invitrogen, cat. PHG0313), 23.4 microg/mL adenine (Sigma-Aldrich, cat. A2786), 97.3 U/mL penicillin-streptomycin (Invitrogen, cat. 15140122), 1.9 mM L-glutamine (Invitrogen, cat. 25030081), and 9.7 microM Y-27632 dihydrochloride (Tocris Bioscience, Bristol, United Kingdom, cat. 1254). The PDCs were cultured in complete DMEM/F12 media without 9.7 microM Y-27632 dihydrochloride for at least two passages prior to the screen. The established cell line HOP-62 was cultured in RPMI 1640 medium, HEPES (Invitrogen, cat. 22400105) with 10% defined fetal bovine serum (HyClone Laboratories Inc., cat. SH30070.03) and 2 mM L-glutamine (Invitrogen, cat. 25030081). The pooled donor HUVEC were cultured in endothelial cell growth medium 2 (PromoCell, Heidelberg, Germany, cat. C-22011) and the hMSC were cultured in mesenchymal stem cell growth medium 2 (PromoCell, cat. C-28009). For all experiments, HUVEC and hMSC were used at passages </=5, while the malignant cell lines were used at passages </=15. […]

[1] = curve of first compound, second compound 0.0316 µM
[2] = curve of first compound, second compound 0.1 µM
[3] = curve of first compound, second compound 0.316 µM
[4] = curve of first compound, second compound 1 µM
[5] = curve of first compound, second compound 3.16 µM
[6] = second compound 0.0316 µM, first compound 0.0316 µM
[7] = second compound 0.0316 µM, first compound 0.1 µM
[8] = second compound 0.0316 µM, first compound 0.316 µM
[9] = second compound 0.0316 µM, first compound 1 µM
[10] = second compound 0.0316 µM, first compound 3.16 µM
[11] = second compound 0.0316 µM, first compound 10 µM
[12] = second compound 0.1 µM, first compound 0.0316 µM
[13] = second compound 0.1 µM, first compound 0.1 µM
[14] = second compound 0.1 µM, first compound 0.316 µM
[15] = second compound 0.1 µM, first compound 1 µM
[16] = second compound 0.1 µM, first compound 3.16 µM
[17] = second compound 0.1 µM, first compound 10 µM
[18] = second compound 0.316 µM, first compound 0.0316 µM
[19] = second compound 0.316 µM, first compound 0.1 µM
[20] = second compound 0.316 µM, first compound 0.316 µM
[21] = second compound 0.316 µM, first compound 1 µM
[22] = second compound 0.316 µM, first compound 3.16 µM
[23] = second compound 0.316 µM, first compound 10 µM
[24] = second compound 1 µM, first compound 0.0316 µM
[25] = second compound 1 µM, first compound 0.1 µM
[26] = second compound 1 µM, first compound 0.316 µM
[27] = second compound 1 µM, first compound 1 µM
[28] = second compound 1 µM, first compound 3.16 µM
[29] = second compound 1 µM, first compound 10 µM
[30] = second compound 3.16 µM, first compound 0.0316 µM
[31] = second compound 3.16 µM, first compound 0.1 µM
[32] = second compound 3.16 µM, first compound 0.316 µM
[33] = second compound 3.16 µM, first compound 1 µM
[34] = second compound 3.16 µM, first compound 3.16 µM
[35] = second compound 3.16 µM, first compound 10 µM
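Further: spheroids exposed to agents for 7 days before readout.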

Row | Structure (SMILES) | IC50 [1] | IC50 [2] | IC50 [3] | IC50 [4] | IC50 [5] | viability, T/C [6] | viability, T/C [7] | viability, T/C [8] | viability, T/C [9] | viability, T/C [10] | viability, T/C [11] | viability, T/C [12] | viability, T/C [13] | viability, T/C [14] | viability, T/C [15] | viability, T/C [16] | viability, T/C [17] | viability, T/C [18] | viability, T/C [19] | viability, T/C [20] | other results
1 | CC1(C)CCC(CN2CCN(c3ccc(C(=O)NS(=O)(=O)c4ccc(NCC5CCOCC5)c([N+](=O)[O-])c4)c(Oc4cnc5[nH]ccc5c4)c3)CC2)=C(c2ccc(Cl)cc2)C1 + C=CC(=O)N1CCN(c2nc(OCC3CCCN3C)nc3c2CCN(c2cccc4cccc(C)c24)C3)CC1CC#N | 4.25 µM | 5.18 µM | 3.28 µM | 3.85 µM | 0.339 µM | 99.3% | 100% | 108% | 101% | 64.8% | 7.81% | 115% | 100% | 93.1% | 107% | 80.5% | 9.45% | 100% | 99.8% | 94.8% | viability, T/C [21]: 100%; viability, T/C [22]: 51.3%; viability, T/C [23]: 9.84%; viability, T/C [24]: 86.1%; viability, T/C [25]: 97.8%; viability, T/C [26]: 87.3%; viability, T/C [27]: 84.5%; viability, T/C [28]: 59%; viability, T/C [29]: 6.08%; viability, T/C [30]: 55.2%; viability, T/C [31]: 55%; viability, T/C [32]: 43.9%; viability, T/C [33]: 35.8%; viability, T/C [34]: 0.97%; viability, T/C [35]: 0.63%
2 | COc1cc(OC)cc(N(CCNC(C)C)c2ccc3ncc(-c4cnn(C)c4)nc3c2)c1 |  |  |  |  |  |  |  |  |  |  |  |  |  |  |  |  |  |  |  |  | viability, T/C (compound 0.0316 µM): 103% [middle of 5 runs]; viability, T/C (compound 0.1 µM): 104% [middle of 5 runs]; viability, T/C (compound 0.316 µM): 109% [middle of 5 runs]; viability, T/C (compound 1 µM): 121% [middle of 5 runs]; viability, T/C (compound 3.16 µM): 142% [middle of 5 runs]; viability, T/C (compound 10 µM): 16.8% [middle of 5 runs]; IC50 (curve of compound): 6.96 µM [middle of 5 runs]
3 | COc1cc2nccc(Oc3ccc(NC(=O)C4(C(=O)Nc5ccc(F)cc5)CC4)cc3)c2cc1OC + C=CC(=O)N1CCN(c2nc(OCC3CCCN3C)nc3c2CCN(c2cccc4cccc(C)c24)C3)CC1CC#N | > 10 µM | > 10 µM | > 10 µM | > 10 µM | 0.43 µM | 109% | 114% | 113% | 99.5% | 70.4% | 69.9% | 111% | 108% | 102% | 111% | 72.2% | 73% | 102% | 111% | 106% | viability, T/C [21]: 104%; viability, T/C [22]: 79.7%; viability, T/C [23]: 62.7%; viability, T/C [24]: 111%; viability, T/C [25]: 108%; viability, T/C [26]: 111%; viability, T/C [27]: 102%; viability, T/C [28]: 66.6%; viability, T/C [29]: 59.6%; viability, T/C [30]: 80.1%; viability, T/C [31]: 73.7%; viability, T/C [32]: 55%; viability, T/C [33]: 33.7%; viability, T/C [34]: 12.4%; viability, T/C [35]: 0.35%

Source: PubChem BioAssay AID1963861 (Molecular Pharmacology Branch, DTP, NCI, 2024)
